Experimental data taken from ChEMBL document CHEMBL1201862, “PubChem BioAssay data set” (2004).
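These data come from cells grown in 96-well plates and exposed to compound for 48 hours at five concentrations. GI50: concentration for 50% inhibition of growth.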 Active and inactive are the calls of the source. Cut-off read from the data, not from the text of the source: active = GI50 up to about 1.1 µM and inactive = higher.

How the values were obtained:
Assay in all cases: NCI tumour cell line growth inhibition, 48 h
[1] = test system: LXFL 529
[2] = test system: A498
[3] = test system: SN12C
[4] = test system: SNB-19
[5] = test system: KM12
[6] = test system: MOLT-4
[7] = test system: OVCAR-3
[8] = test system: U-251
[9] = test system: K562
[10] = test system: SF-295
[11] = test system: UACC-62
[12] = test system: RXF 631
[13] = test system: SNB-78
[14] = test system: HOP-18
[15] = test system: A549
[16] = test system: SK-MEL-28
[17] = test system: Malme-3M
[18] = test system: DMS-114
[19] = test system: DMS-273
[20] = test system: RPMI-8226
[21] = test system: M19-MEL
[22] = test system: EKVX
[23] = test system: COLO 205
[24] = test system: CAKI-1
[25] = test system: KM-20L2
[26] = test system: DLD-1
[27] = test system: HCT-15
[28] = test system: ACHN
[29] = test system: SW-620
[30] = test system: XF498
[31] = test system: TK-10
[32] = test system: OVCAR-4
[33] = test system: NCI-H23
[34] = test system: 786-0
[35] = test system: NCI-H522
[36] = test system: M14
[37] = test system: HT-29
[38] = test system: RXF 393
[39] = test system: HCC 2998
[40] = test system: IGROV-1
[41] = test system: NCI-H460
[42] = test system: SK-MEL-5
[43] = test system: UO-31
[44] = test system: HOP-92
[45] = test system: OVCAR-8
[46] = test system: LOX IMVI
[47] = test system: SNB-75
[48] = test system: HCT-116
[49] = test system: SK-MEL-2
[50] = test system: NCI-H226
[51] = test system: HOP-62
[52] = test system: OVCAR-5
[53] = test system: UACC-257
[54] = test system: CCRF-CEM
[55] = test system: SF-268
[56] = test system: SF-539
[57] = test system: HL-60
[58] = test system: SR
[59] = test system: SK-OV-3

Q: How did the GI50 [1] turn out when Cc1cc2c(C(C)C)c(O)c(O)c(C=O)c2c(O)c1-c1c(C)cc2c(C(C)C)c(O)c(O)c(C=O)c2c1O [GOSSYPOL] was run?
A: The GI50 was 2.74 µM (inactive).

Q: What about the GI50 [2] of the same compound?
A: Its GI50 is 4.35 µM (inactive).

Q: What about the GI50 [3] of the same compound?
A: The GI50 was 5.09 µM (inactive).

Q: And the GI50 [4]?
A: Its GI50 is 3.86 µM (inactive).

Q: What about the GI50 [5] of the same compound?
A: The GI50 was 1.97 µM (inactive).

Q: And the GI50 [6]?
A: Its GI50 is 1.91 µM (inactive).

Q: And the GI50 [7]?
A: The GI50 was 3.24 µM (inactive).

Q: And the GI50 [8]?
A: The GI50 was 2.52 µM (inactive).

Q: What about the GI50 [9] of the same compound?
A: The GI50 was 3.08 µM (inactive).

Q: And the GI50 [10]?
A: The GI50 was 2.37 µM (inactive).

Q: What about the GI50 [11] of the same compound?
A: The GI50 was 2.36 µM (inactive).

Q: And the GI50 [12]?
A: The GI50 was 5.32 µM (inactive).

Q: And the GI50 [13]?
A: Its GI50 is 5.14 µM (inactive).

Q: What about the GI50 [14] of the same compound?
A: The GI50 was 3.69 µM (inactive).

Q: And the GI50 [15]?
A: The GI50 was 2.98 µM (inactive).

Q: What about the GI50 [16] of the same compound?
A: The GI50 was 4.66 µM (inactive).

Q: What about the GI50 [17] of the same compound?
A: Its GI50 is 5.46 µM (inactive).

Q: What about the GI50 [18] of the same compound?
A: The GI50 was 2.58 µM (inactive).

Q: What about the GI50 [19] of the same compound?
A: Its GI50 is 4.4 µM (inactive).

Q: And the GI50 [20]?
A: Its GI50 is 2.49 µM (inactive).

Q: What about the GI50 [21] of the same compound?
A: The GI50 was 3.34 µM (inactive).

Q: What about the GI50 [22] of the same compound?
A: Its GI50 is 2.15 µM (inactive).

Q: What about the GI50 [23] of the same compound?
A: The GI50 was 2.63 µM (inactive).

Q: And the GI50 [24]?
A: Its GI50 is 4.14 µM (inactive).

Q: And the GI50 [25]?
A: The GI50 was 3.33 µM (inactive).

Q: What about the GI50 [26] of the same compound?
A: The GI50 was 3.84 µM (inactive).

Q: What about the GI50 [27] of the same compound?
A: The GI50 was 3.52 µM.

Q: What about the GI50 [28] of the same compound?
A: The GI50 was 3.02 µM (inactive).

Q: And the GI50 [29]?
A: The GI50 was 4.59 µM (inactive).

Q: What about the GI50 [30] of the same compound?
A: The GI50 was 2.26 µM (inactive).

Q: For CN(C)CC1(C)CC/C(=C\c2ccccc2)C1=O (configuration not stated), which GI50 [2] is on record?
A: Its GI50 is > 100 µM (inactive).

Q: And the GI50 [31]?
A: The GI50 was > 100 µM (inactive).

Q: What about the GI50 [3] of the same compound?
A: The GI50 was > 100 µM (inactive).

Q: What about the GI50 [32] of the same compound?
A: Its GI50 is > 100 µM (inactive).

Q: And the GI50 [33]?
A: The GI50 was > 100 µM (inactive).

Q: And the GI50 [34]?
A: Its GI50 is > 100 µM (inactive).

Q: What about the GI50 [4] of the same compound?
A: Its GI50 is 44.1 µM (inactive).

Q: What about the GI50 [35] of the same compound?
A: The GI50 was 39.8 µM (inactive).

Q: What about the GI50 [5] of the same compound?
A: The GI50 was > 100 µM (inactive).

Q: And the GI50 [36]?
A: Its GI50 is > 100 µM (inactive).

Q: And the GI50 [37]?
A: The GI50 was > 100 µM (inactive).

Q: And the GI50 [38]?
A: Its GI50 is > 100 µM (inactive).

Q: What about the GI50 [6] of the same compound?
A: The GI50 was > 100 µM (inactive).

Q: And the GI50 [7]?
A: Its GI50 is > 100 µM (inactive).

Q: What about the GI50 [39] of the same compound?
A: The GI50 was > 100 µM (inactive).

Q: What about the GI50 [40] of the same compound?
A: Its GI50 is > 100 µM (inactive).

Q: What about the GI50 [8] of the same compound?
A: The GI50 was > 100 µM (inactive).

Q: And the GI50 [41]?
A: Its GI50 is > 100 µM (inactive).

Q: What about the GI50 [9] of the same compound?
A: The GI50 was > 100 µM (inactive).

Q: And the GI50 [10]?
A: The GI50 was > 100 µM (inactive).

Q: What about the GI50 [11] of the same compound?
A: Its GI50 is > 100 µM (inactive).

Q: And the GI50 [42]?
A: Its GI50 is > 100 µM (inactive).

Q: And the GI50 [12]?
A: The GI50 was 49 µM (inactive).

Q: And the GI50 [43]?
A: The GI50 was > 100 µM (inactive).

Q: And the GI50 [13]?
A: The GI50 was > 100 µM (inactive).

Q: What about the GI50 [14] of the same compound?
A: The GI50 was > 100 µM (inactive).

Q: And the GI50 [15]?
A: The GI50 was > 100 µM (inactive).

Q: What about the GI50 [44] of the same compound?
A: The GI50 was > 100 µM (inactive).

Q: What about the GI50 [45] of the same compound?
A: Its GI50 is > 100 µM (inactive).

Q: What about the GI50 [16] of the same compound?
A: The GI50 was > 100 µM (inactive).

Q: And the GI50 [46]?
A: Its GI50 is > 100 µM (inactive).

Q: What about the GI50 [17] of the same compound?
A: Its GI50 is > 100 µM (inactive).

Q: And the GI50 [47]?
A: The GI50 was > 100 µM (inactive).

Q: What about the GI50 [18] of the same compound?
A: Its GI50 is > 100 µM (inactive).

Q: And the GI50 [48]?
A: The GI50 was > 100 µM (inactive).

Q: What about the GI50 [49] of the same compound?
A: The GI50 was > 100 µM (inactive).

Q: What about the GI50 [19] of the same compound?
A: The GI50 was > 100 µM (inactive).

Q: What about the GI50 [50] of the same compound?
A: Its GI50 is > 100 µM (inactive).

Q: What about the GI50 [51] of the same compound?
A: Its GI50 is > 100 µM (inactive).

Q: What about the GI50 [52] of the same compound?
A: Its GI50 is > 100 µM (inactive).

Q: And the GI50 [20]?
A: Its GI50 is 27.5 µM (inactive).

Q: What about the GI50 [53] of the same compound?
A: Its GI50 is > 100 µM (inactive).

Q: What about the GI50 [21] of the same compound?
A: The GI50 was > 100 µM (inactive).

Q: And the GI50 [54]?
A: Its GI50 is 43.1 µM (inactive).

Q: And the GI50 [23]?
A: Its GI50 is > 100 µM (inactive).

Q: What about the GI50 [24] of the same compound?
A: Its GI50 is > 100 µM (inactive).

Q: What about the GI50 [25] of the same compound?
A: The GI50 was > 100 µM (inactive).

Q: And the GI50 [26]?
A: Its GI50 is > 100 µM (inactive).

Q: What about the GI50 [27] of the same compound?
A: Its GI50 is 63 µM.

Q: And the GI50 [28]?
A: Its GI50 is > 100 µM (inactive).

Q: What about the GI50 [55] of the same compound?
A: The GI50 was > 100 µM (inactive).

Q: And the GI50 [29]?
A: Its GI50 is 63.1 µM (inactive).

Q: What about the GI50 [56] of the same compound?
A: The GI50 was > 100 µM (inactive).

Q: What about the GI50 [30] of the same compound?
A: Its GI50 is > 100 µM (inactive).

Q: Which results are given for O=C(CC1Sc2ccccc2NC1=O)Nc1ccc(Cl)cc1 (configuration not stated)?
A: GI50 [1]: > 100 µM (inactive); GI50 [2]: > 100 µM (inactive); GI50 [31]: > 100 µM (inactive); GI50 [3]: > 100 µM (inactive); GI50 [32]: 18.2 µM (inactive); GI50 [33]: 46.2 µM (inactive); GI50 [4]: > 100 µM (inactive); GI50 [35]: > 100 µM (inactive); GI50 [5]: > 100 µM (inactive); GI50 [36]: 92.5 µM (inactive); GI50 [37]: > 100 µM (inactive); GI50 [38]: 31.1 µM (inactive); GI50 [6]: > 100 µM (inactive); GI50 [7]: > 100 µM (inactive); GI50 [39]: 72.1 µM (inactive); GI50 [40]: 86.3 µM (inactive); GI50 [8]: > 100 µM (inactive); GI50 [41]: > 100 µM (inactive); GI50 [9]: > 100 µM (inactive); GI50 [10]: > 100 µM (inactive); GI50 [11]: 23.9 µM (inactive); GI50 [42]: > 100 µM (inactive); GI50 [12]: 83.6 µM (inactive); GI50 [43]: > 100 µM (inactive); GI50 [13]: > 100 µM (inactive); GI50 [14]: 20 µM (inactive); GI50 [15]: 91.8 µM (inactive); GI50 [57]: > 100 µM (inactive); GI50 [44]: 19.6 µM (inactive); GI50 [45]: 37.9 µM (inactive); GI50 [16]: > 100 µM (inactive); GI50 [46]: > 100 µM (inactive); GI50 [17]: 46.2 µM (inactive); GI50 [47]: 13.1 µM (inactive); GI50 [18]: 48.4 µM (inactive); GI50 [48]: 42.9 µM (inactive); GI50 [49]: > 100 µM (inactive); GI50 [19]: 83.4 µM (inactive); GI50 [50]: > 100 µM (inactive); GI50 [51]: > 100 µM (inactive); GI50 [58]: > 100 µM (inactive); GI50 [52]: > 100 µM (inactive); GI50 [20]: > 100 µM (inactive); GI50 [53]: > 100 µM (inactive); GI50 [21]: > 100 µM (inactive); GI50 [22]: > 100 µM (inactive); GI50 [59]: > 100 µM (inactive); GI50 [54]: > 100 µM (inactive); GI50 [23]: > 100 µM (inactive); GI50 [24]: > 100 µM (inactive); GI50 [25]: 89.1 µM (inactive); GI50 [26]: > 100 µM (inactive); GI50 [27]: 75.9 µM; GI50 [28]: 26.5 µM (inactive); GI50 [55]: 38.5 µM (inactive); GI50 [29]: > 100 µM (inactive); GI50 [56]: 50.2 µM (inactive); GI50 [30]: > 100 µM (inactive)
